Measured values published in ChEMBL document CHEMBL3430912, “GSK Tres Cantos Anti-Kinetoplastid Screening (TCAKS) Data”.

What was measured:
Leishmania donovani [1] = assay: GSK_TCAKS: pIC50 Leishmania donovani viability assay using fluorescence intensity. Assay plates (1536-well) were prepared by adding 30nL per well of compound. For single shot assay, the final compound concentration was 5uM. […] Briefly, eGFP LdBOB axenic amastigotes were harvested, fixed and counted in a CASY cell counter (Roche-Applied Science). A final concentration of 1.5 * 10^5 cells per well were prepared in amastigote media containing 500 U/mL penicillin/streptomycin (Invitrogen) and 6uL was dispensed to each experimental well using a Multidrop Combi dispenser (Thermo Scientific). 6uL of assay media was dispensed to control columns used as reference for 100% compound response. Following incubation for 72 h at 37C, 5% CO2, 2 uL of resazurin was added to each well at a final concentration of 0.5 mM in phosphate buffered saline (PBS) with IGEPAL (Sigma-Aldrich), 0.05% (v/v).; format: functional, organism-based
[2] = target: Sterol 14-alpha demethylase (Trypanosoma cruzi (strain CL Brener), UniProt Q7Z1V1); assay: GSK_TCAKS: pIC50 CYP51 from Trypanosoma cruzi.; format: functional
Sequence of Sterol 14-alpha demethylase (Q7Z1V1 whole entry): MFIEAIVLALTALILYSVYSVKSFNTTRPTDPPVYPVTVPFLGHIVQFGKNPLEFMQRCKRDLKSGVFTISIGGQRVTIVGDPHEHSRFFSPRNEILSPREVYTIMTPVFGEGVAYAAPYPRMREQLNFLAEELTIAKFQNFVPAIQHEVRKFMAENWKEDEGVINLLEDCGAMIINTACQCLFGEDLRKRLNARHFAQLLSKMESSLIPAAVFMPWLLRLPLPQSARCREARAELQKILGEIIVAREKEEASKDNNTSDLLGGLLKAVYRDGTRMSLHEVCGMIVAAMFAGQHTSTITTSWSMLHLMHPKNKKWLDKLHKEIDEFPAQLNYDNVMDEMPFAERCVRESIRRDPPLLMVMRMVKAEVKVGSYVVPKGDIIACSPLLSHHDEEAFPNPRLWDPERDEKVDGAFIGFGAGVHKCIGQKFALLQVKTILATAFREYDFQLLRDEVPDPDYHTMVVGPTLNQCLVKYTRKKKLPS

Trypanosoma cruzi [3] = assay: (§1) GSK_TCAKS: pIC50 Trypanosoma cruzi Imaging: Infected Cells. […] Cells were then washed once with PBS before infection. T. cruzi trypomastigotes, collected at days 5 to 8 after infection from LLC-MK2 parasite infected cultures, were allowed to swim out for 4h at 37C from a centrifuged pellet (2,500 rpm/10 min/room temperature). Trypomastigotes were then collected and counted in a CASY Cell Counter. Trypomastigotes, in supplemented DMEM, were added to H9c2 cultures in a multiplicity of infection of 1 and incubated for 18 h. Cells were washed once with PBS before incubation of the infected H9c2 monolayer with trypsin (Life-Technologies) to detach cells from the flask. Cells were counted in a CASY Cell Counter using a 150 um capillary and their density set at 5 * 10^4 cells per mL in supplemented assay DMEM. Infected H9c2 were dispensed into 384-well poly-lysine coated assay plates at 50uL per well using a Multidrop Combi dispenser. After seeding them, the plates were incubated at 37C, 5% CO2 for 72h. Cultures were then fixed and stained by addition of 50 uL of a solution containing 8% formaldehyde and 4 uM DRAQ5 DNA dye (BioStatus, UK) per well. […] Five images were collected per well for reliable statistical analysis. Automated image analysis was performed with a script developed on Acapella High Content Imaging and Analysis Software (PerkinElmer). Output: percentage of infected cells per well as a second infection marker.; format: functional, organism-based, Rattus norvegicus; conditions: H9c2, 4 h
Trypanosoma cruzi [4] = assay: GSK_TCAKS: pIC50 Trypanosoma cruzi viability assay using beta-GAL activity. This assay was run at single shot at 5uM compound concentration per well. The biological reagents consisted of NIH-3T3 host cells and trypomastigotes parasitic cells; both cell types were set to a 3.3 * 10^5 cells/mL dilution in assay DMEM by means of a CASY cell counter device using a 60um capillary. 6 uL of the mixture were dispensed per well (about 1 * 10^3 host-cells and 1 * 10^3 parasites) with a Multidrop Combi dispenser. […] In all wells, the percentage of DMSO never exceeded 0.5%. Plates incubated for four days at 37C, 5% CO2. The substrate used for the assay fluorescence intensity (FLINT) readout was resorufin-beta-D-galactopiranoside (Sigma-Aldrich) at 5uM per well. It was diluted in PBS supplemented with the soft detergent Igepal (Fluka).; format: functional, organism-based, Mus musculus; conditions: Tulahuen, NIH3T3
[5] = GSK_TCAKS: pIC50 HepG2 human cell line viability assay using luminiscence. […] Seeding density was checked to ensure that new mono-layers were not more than 50% confluent at the time of harvesting. Cell suspension was added to 500 mL of the same medium at a final density of 1.2 * 10^5 cells/mL. This cell suspension was dispensed (25 uL, 3000 cells per well) into 384-well clear-bottom plates using a Multidrop Combi dispenser. Prior to addition of the cell suspension, the screening compounds (250 nL) were pre-dispensed into the plates with an Echo liquid handler. Plates were incubated for 48 h at 37C, 5% CO2. After incubation, plates equilibrated at room temperature for 30 min before proceeding to develop the luminescent signal. The signal developer, CellTiter-Glo Reagent, was allowed to equilibrate at room temperature for 30 min and added to the plates (25uL per well) using a Multidrop Combi dispenser. Plates were left for 10 min at room temperature for stabilization and then read using a ViewLux.; format: toxicity, cell-based
Leishmania donovani [6] = assay: (§2) GSK_TCAKS: pIC50 Leishmania donovani Imaging: Amastigotes/Macrophages. Assay plates (384-well) were prepared by adding 250nL of compound to each well. For single shot assay, the final compound concentration was 5 uM. […] Automated image analysis was performed with a script developed on Acapella High Content Imaging and Analysis Software (PerkinElmer). Output: Average number of amastigotes per macrophage cell were reported for each well.; format: functional, organism-based, Homo sapiens; conditions: THP-1
Trypanosoma cruzi [7] = assay: as §1, with “H2C9” for “Trypanosoma cruzi”, “H9c2 Host Cardiomyocytes.” for “Infected Cells.”, “Number” for “percentage”, “H9c2 Host Cardiomyocytes nuclei to determine drug-related cytotoxicity.” for “infected cells per well as a second infection marker.”; format: functional, organism-based, Rattus norvegicus; conditions: H9c2, 4 h
[8] = system: Trypanosoma brucei brucei; assay: GSK_TCAKS: pIC50 Trypanosoma brucei viability assay using luminiscence. Assay plates (1536-well) were prepared. T. brucei cultures were harvested and counted in a CASY cell counter. A parasite suspension was prepared at a final concentration of 5 * 10^4 cells/mL in complete HMI9 medium and 6uL was dispensed to all wells containing compounds using a Multidrop Combi dispenser. 6uL of HMI9 media with 0.4% DMSO were dispensed to control columns. Plates were incubated for 24 h at 37C, 5% CO2 then tempered for 10 min at room temperature. ATP content was quantified by adding 4 uL of CellTiter-Glo Reagent (Promega) according to the manufacturer's instructions. Luminescence was measured using a ViewLux.; format: functional, organism-based; conditions: Lister 427, CASY
Trypanosoma cruzi [9] = assay: GSK_TCAKS: pIC50 Trypanosoma cruzi Imaging: Amastigotes/Cell. […] Cells were then washed once with PBS before infection. T. cruzi trypomastigotes, collected at days 5 to 8 after infection from LLC-MK2 parasite infected cultures, were allowed to swim out for 4h at 37C from a centrifuged pellet (2,500 rpm/10 min/room temperature). Trypomastigotes were then collected and counted in a CASY Cell Counter. Trypomastigotes, in supplemented DMEM, were added to H9c2 cultures in a multiplicity of infection of 1 and incubated for 18 h. Cells were washed once with PBS before incubation of the infected H9c2 monolayer with trypsin (Life-Technologies) to detach cells from the flask. Cells were counted in a CASY Cell Counter using a 150 um capillary and their density set at 5 * 10^4 cells per mL in supplemented assay DMEM. Infected H9c2 were dispensed into 384-well poly-lysine coated assay plates at 50uL per well using a Multidrop Combi dispenser. After seeding them, the plates were incubated at 37C, 5% CO2 for 72h. Cultures were then fixed and stained by addition of 50 uL of a solution containing 8% formaldehyde and 4 uM DRAQ5 DNA dye (BioStatus, UK) per well. […] Five images were collected per well for reliable statistical analysis. Automated image analysis was performed with a script developed on Acapella High Content Imaging and Analysis Software (PerkinElmer). Output: number of amastigotes per cell as infection level measurement.; format: functional, organism-based, Rattus norvegicus; conditions: H9c2, 4 h
[10] = system: Trypanosoma brucei brucei; assay: GSK_TCAKS: pIC50 Trypanosoma brucei viability assay using fluorescence intensity. Assay plates (1536-well) were prepared by dispensing 25nL of compound solution per well using an Echo acoustic dispenser (Labcyte).; format: functional, organism-based; conditions: Lister 427, 2 h
Leishmania donovani [11] = assay: as §2, with “Infected Macrophages.” for “Amastigotes/Macrophages.”, “Percent” for “Average number”, “infected” for “amastigotes per”, “cells” for “cell”; format: functional, organism-based, Homo sapiens; conditions: THP-1
Leishmania donovani [12] = assay: as §2, with “THP-1 Host Macrophages.” for “Amastigotes/Macrophages.”, “THP-1” for “Average number of amastigotes per macrophage”, “cell count” for “cell”; format: functional, organism-based, Homo sapiens

COCc1cc(Nc2ccccc2)nc(-c2ccccn2)n1
IC50 (Leishmania donovani [1]): 7.94 µM
IC50 [2]: > 100 µM
IC50 (Trypanosoma cruzi [3]): 25.1 µM
IC50 (Trypanosoma cruzi [4]): 5.01 µM
IC50 at 48 h [5]: 100 µM
IC50 (Leishmania donovani [6]): 5.01 µM
IC50 (Trypanosoma cruzi [7]): 3.98 µM
IC50 [8]: > 39.8 µM
IC50 (Trypanosoma cruzi [9]): 12.6 µM
IC50 [10]: > 39.8 µM
IC50 (Leishmania donovani [11]): 7.94 µM
IC50 (Leishmania donovani [12]): > 50.1 µM

CNC(=O)Oc1ccc(C(=O)NCc2ccccc2)cc1OC(=O)NC
IC50 (Leishmania donovani [1]): > 50.1 µM
IC50 [2]: > 100 µM
IC50 (Trypanosoma cruzi [3]): 39.8 µM
IC50 (Trypanosoma cruzi [4]): 31.6 µM
IC50 at 48 h [5]: > 100 µM
IC50 (Leishmania donovani [6]): > 50.1 µM
IC50 (Trypanosoma cruzi [7]): > 50.1 µM
IC50 [8]: 0.398 µM
IC50 (Trypanosoma cruzi [9]): 39.8 µM
IC50 [10]: 0.126 µM
IC50 (Leishmania donovani [11]): > 50.1 µM
IC50 (Leishmania donovani [12]): > 50.1 µM

CC(C)(C)Nc1nc(Nc2ccc3c(c2)CS(=O)(=O)C3)nc2[nH]ccc12
IC50 (Leishmania donovani [1]): 7.94 µM
IC50 [2]: 25.1 µM
IC50 (Trypanosoma cruzi [3]): 31.6 µM
IC50 (Trypanosoma cruzi [4]): 1 µM
IC50 at 48 h [5]: 31.6 µM
IC50 (Leishmania donovani [6]): 5.01 µM
IC50 (Trypanosoma cruzi [7]): 1 µM
IC50 [8]: 5.01 µM
IC50 (Trypanosoma cruzi [9]): 20 µM
IC50 [10]: 0.794 µM
IC50 (Leishmania donovani [11]): 6.31 µM
IC50 (Leishmania donovani [12]): 20 µM

COc1ccc(CN2C(=O)C(O)(CC(=O)c3ccncc3)c3cc(Br)ccc32)cc1OC (stereo unspecified)
IC50 (Leishmania donovani [1]): 39.8 µM
IC50 [2]: 0.501 µM
IC50 (Trypanosoma cruzi [3]): 25.1 µM
IC50 (Trypanosoma cruzi [4]): 2.51 µM
IC50 at 48 h [5]: 39.8 µM
IC50 (Leishmania donovani [6]): 20 µM
IC50 (Trypanosoma cruzi [7]): 2 µM
IC50 [8]: 0.631 µM
IC50 (Trypanosoma cruzi [9]): 12.6 µM
IC50 [10]: 0.631 µM
IC50 (Leishmania donovani [11]): 25.1 µM
IC50 (Leishmania donovani [12]): 39.8 µM

CNC(=O)C1Cc2ccccc2N1C(=O)Cc1ccc(F)cc1 (stereo unspecified)
IC50 [2]: > 100 µM
IC50 (Trypanosoma cruzi [3]): > 50.1 µM
IC50 (Trypanosoma cruzi [4]): > 50.1 µM
IC50 at 48 h [5]: > 100 µM
IC50 (Leishmania donovani [6]): > 50.1 µM
IC50 (Trypanosoma cruzi [7]): > 50.1 µM
IC50 [8]: 0.251 µM
IC50 (Trypanosoma cruzi [9]): > 50.1 µM
IC50 [10]: 0.251 µM
IC50 (Leishmania donovani [11]): > 50.1 µM
IC50 (Leishmania donovani [12]): > 50.1 µM

CC(C)CC(=O)Nc1cc(C2CC2)nn1-c1nc2c(c(=O)[nH]1)CCCC2
IC50 [2]: > 100 µM
IC50 (Trypanosoma cruzi [3]): 0.501 µM
IC50 (Trypanosoma cruzi [4]): 0.794 µM
IC50 at 48 h [5]: > 100 µM
IC50 (Leishmania donovani [6]): 5.01 µM
IC50 (Trypanosoma cruzi [7]): 2.51 µM
IC50 [8]: 0.2 µM
IC50 (Trypanosoma cruzi [9]): 0.126 µM
IC50 [10]: 0.2 µM
IC50 (Leishmania donovani [11]): 7.94 µM
IC50 (Leishmania donovani [12]): 5.01 µM

Cc1ccc(NC(C)C(=O)Nc2ccc(C#N)cc2)cc1S(=O)(=O)N1CCCCC1 (stereo unspecified)
IC50 (Leishmania donovani [1]): 0.794 µM
IC50 [2]: 15.8 µM
IC50 (Trypanosoma cruzi [3]): 7.94 µM
IC50 (Trypanosoma cruzi [4]): 10 µM
IC50 at 48 h [5]: 79.4 µM
IC50 (Leishmania donovani [6]): 5.01 µM
IC50 (Trypanosoma cruzi [7]): > 50.1 µM
IC50 [8]: 10 µM
IC50 (Trypanosoma cruzi [9]): 7.94 µM
IC50 [10]: 7.94 µM
IC50 (Leishmania donovani [11]): 10 µM
IC50 (Leishmania donovani [12]): 50.1 µM

O=C(Nc1ccc(C(F)(F)F)cc1)Nc1cccc([N+](=O)[O-])c1
IC50 (Leishmania donovani [1]): 7.94 µM
IC50 [2]: 6.31 µM
IC50 (Trypanosoma cruzi [3]): 1.26 µM
IC50 (Trypanosoma cruzi [4]): 1 µM
IC50 at 48 h [5]: 10 µM
IC50 (Leishmania donovani [6]): 2 µM
IC50 (Trypanosoma cruzi [7]): 5.01 µM
IC50 [8]: 2 µM
IC50 (Trypanosoma cruzi [9]): 0.794 µM
IC50 [10]: 2 µM
IC50 (Leishmania donovani [11]): 2.51 µM
IC50 (Leishmania donovani [12]): 6.31 µM

CC(C)(C)c1cc(NC2CC2)nc(-c2ccccn2)n1
IC50 (Leishmania donovani [1]): 1.58 µM
IC50 [2]: > 100 µM
IC50 (Trypanosoma cruzi [3]): 1.58 µM
IC50 (Trypanosoma cruzi [4]): 1.26 µM
IC50 at 48 h [5]: > 100 µM
IC50 (Leishmania donovani [6]): 1.58 µM
IC50 (Trypanosoma cruzi [7]): 0.316 µM
IC50 [8]: 2.51 µM
IC50 (Trypanosoma cruzi [9]): 1.26 µM
IC50 [10]: 7.94 µM
IC50 (Leishmania donovani [11]): 2.51 µM
IC50 (Leishmania donovani [12]): 25.1 µM
